Measurements reported in patent US20130196934A1, “COMPOSITION FOR PERINATAL AND NEONATAL STROKE” (priority 2010, published 2013).

Test system: red blood cell (RBC)
Experiment: Cell-based antioxidant protection in erythrocytes (CAP-e) assay
Conditions: human RBC, AAPH; biphasic dose response; FIG. 2
Source text: As a model cell type, red blood cell (RBC) was used. This is an inert cell type, in contrast to other cell types such as PMN cells as described in section 2, where pro-inflammatory compounds may induce the reactive oxidative burst, or anti-inflammatory compounds may perform cellular signaling and change the behavior of the PMN cell, at doses many times below levels of detection for antioxidants. This assay was developed particularly to be able to assess antioxidants from complex natural products in a cell-based system. Human RBC were washed repeatedly physiological saline, and then exposed to the test products. During the incubation with the test products, any antioxidant compounds able to cross the cell membrane will enter the interior of the RBC. Then the RBC are washed to remove compounds that were not absorbed by the cells, loaded with the DCF-DA dye, which turns fluorescent upon exposure to reactive oxygen species. Oxidation was triggered by addition of the peroxyl free radical generator AAPH. The fluorescence intensity was evaluated. The low fluorescence intensity of untreated control cells served as a baseline, and RBC treated with AAPH alone served as a positive control for maximum oxidative damage.

O=C[C@H](O)[C@H](O)[C@H](O)CO [ribose, Ribose]
antioxidant protection of erythrocytes from oxidative damage: protected the erythrocytes
